Assay results as given in ChEMBL document CHEMBL1125453, “Side chain modified 5-deazafolate and 5-deazatetrahydrofolate analogues as mammalian folylpolyglutamate synthetase and glycinamide ribonucleotide formyltransferase inhibitors: synthesis and in vitro biological evaluation” (J Med Chem, 1992).

What was measured:
[1] = target: T1, Folylpolyglutamate synthase, mitochondrial (Mus musculus, UniProt P48760); test: In vitro inhibition of mouse liver Folyl-polyglutamate synthase
T1 sequence (P48760 whole entry): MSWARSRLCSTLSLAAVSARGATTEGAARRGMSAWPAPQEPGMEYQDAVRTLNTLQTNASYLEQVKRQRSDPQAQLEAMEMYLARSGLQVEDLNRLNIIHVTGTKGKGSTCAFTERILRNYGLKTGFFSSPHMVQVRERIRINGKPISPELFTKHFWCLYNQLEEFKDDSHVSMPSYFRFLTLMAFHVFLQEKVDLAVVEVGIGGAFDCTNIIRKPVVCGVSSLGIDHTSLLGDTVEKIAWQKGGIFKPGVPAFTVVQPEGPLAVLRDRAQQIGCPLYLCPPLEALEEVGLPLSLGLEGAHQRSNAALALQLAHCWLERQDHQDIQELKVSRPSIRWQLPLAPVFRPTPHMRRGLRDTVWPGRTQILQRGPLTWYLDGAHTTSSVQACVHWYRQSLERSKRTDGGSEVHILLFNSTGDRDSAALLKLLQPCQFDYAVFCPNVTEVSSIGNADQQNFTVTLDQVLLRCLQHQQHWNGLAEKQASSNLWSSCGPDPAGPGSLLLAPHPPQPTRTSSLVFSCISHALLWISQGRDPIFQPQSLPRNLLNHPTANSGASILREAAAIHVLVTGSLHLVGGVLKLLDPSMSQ

[2] = target: T2, Trifunctional purine biosynthetic protein adenosine-3 (Mus musculus, UniProt Q64737); test: In vitro inhibition of Glycinamide ribonucleotide formyltransferase from L1210 murine leukemia cells
T2 sequence (Q64737 whole entry): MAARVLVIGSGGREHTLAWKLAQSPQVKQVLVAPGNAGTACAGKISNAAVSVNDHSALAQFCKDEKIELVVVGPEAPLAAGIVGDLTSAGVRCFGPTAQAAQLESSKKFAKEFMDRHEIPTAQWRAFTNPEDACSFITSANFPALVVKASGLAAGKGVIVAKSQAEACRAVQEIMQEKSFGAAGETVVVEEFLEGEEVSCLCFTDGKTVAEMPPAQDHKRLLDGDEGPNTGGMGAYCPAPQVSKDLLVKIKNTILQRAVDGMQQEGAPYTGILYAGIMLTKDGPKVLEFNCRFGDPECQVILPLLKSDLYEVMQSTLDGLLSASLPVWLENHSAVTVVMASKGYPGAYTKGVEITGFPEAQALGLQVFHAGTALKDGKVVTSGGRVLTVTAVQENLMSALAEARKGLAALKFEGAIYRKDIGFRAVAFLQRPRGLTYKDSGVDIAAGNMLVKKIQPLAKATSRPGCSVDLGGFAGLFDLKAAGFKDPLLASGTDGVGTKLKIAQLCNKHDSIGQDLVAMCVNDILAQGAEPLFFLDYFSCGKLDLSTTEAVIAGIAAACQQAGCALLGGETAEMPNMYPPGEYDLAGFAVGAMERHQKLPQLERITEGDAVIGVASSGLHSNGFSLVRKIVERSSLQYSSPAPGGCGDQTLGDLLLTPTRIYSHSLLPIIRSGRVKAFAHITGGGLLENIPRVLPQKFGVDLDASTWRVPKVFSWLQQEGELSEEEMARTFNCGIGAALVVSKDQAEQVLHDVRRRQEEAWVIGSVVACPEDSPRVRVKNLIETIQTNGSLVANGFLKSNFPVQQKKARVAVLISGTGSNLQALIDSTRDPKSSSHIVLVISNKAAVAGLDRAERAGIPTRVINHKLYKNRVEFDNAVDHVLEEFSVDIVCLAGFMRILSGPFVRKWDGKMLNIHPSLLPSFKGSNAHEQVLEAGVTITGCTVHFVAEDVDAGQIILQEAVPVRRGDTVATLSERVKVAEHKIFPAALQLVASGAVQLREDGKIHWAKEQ

[3] = target: T3, Dihydrofolate reductase (Homo sapiens, UniProt P00374); test: In vitro inhibition of human dihydrofolate reductase (DHFR)
T3 sequence (P00374 whole entry): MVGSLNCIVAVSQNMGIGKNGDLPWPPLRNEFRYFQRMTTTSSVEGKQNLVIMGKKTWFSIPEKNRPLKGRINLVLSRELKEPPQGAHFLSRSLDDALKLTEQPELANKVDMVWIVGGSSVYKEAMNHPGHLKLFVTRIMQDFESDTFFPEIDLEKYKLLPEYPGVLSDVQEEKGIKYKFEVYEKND

[4] = target: Thymidylate synthase (Homo sapiens, UniProt P04818); test: In vitro inhibition of human thymidylate synthase (TS)
Chain of Thymidylate synthase (P04818 whole entry): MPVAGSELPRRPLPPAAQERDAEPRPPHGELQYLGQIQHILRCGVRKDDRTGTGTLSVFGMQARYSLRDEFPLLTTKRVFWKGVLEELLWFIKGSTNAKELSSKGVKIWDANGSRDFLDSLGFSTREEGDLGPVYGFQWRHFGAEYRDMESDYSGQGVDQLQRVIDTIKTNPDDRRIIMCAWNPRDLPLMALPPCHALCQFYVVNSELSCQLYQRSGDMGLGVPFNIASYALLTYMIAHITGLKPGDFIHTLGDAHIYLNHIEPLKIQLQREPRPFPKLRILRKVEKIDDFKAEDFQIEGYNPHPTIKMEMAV

[5] = target: T2, Trifunctional purine biosynthetic protein adenosine-3; test: In vitro inhibition of mouse GAR transformylase

Q: Nc1nc(O)c2c(n1)NCC(CNc1ccc(C(=O)NC(CCP(=O)(O)O)C(=O)O)cc1)C2 (configuration not stated) was tested. Which Ki [1] did it give?
A: The Ki was 3.2 µM.

Q: What about the Ki [2] of the same compound?
A: The Ki was 0.047 µM.

Q: And the IC50 [3]?
A: The IC50 was 220 µM.

Q: What about the IC50 [4] of the same compound?
A: Its IC50 is 4200 µM.

Q: Which Ki [1] does the source give for Nc1nc2ncc(CNc3ccc(C(=O)NC(CCS(=O)(=O)O)C(=O)O)cc3)cc2c(=O)[nH]1 (configuration not stated) here?
A: The Ki was 570 µM.

Q: And the IC50 [3]?
A: Its IC50 is 0.4 µM.

Q: And the IC50 [4]?
A: Its IC50 is 55 µM.

Q: Which Ki [1] does the source give for Nc1nc(O)c2c(n1)NCC(CNc1ccc(C(=O)NC(CCS(=O)(=O)O)C(=O)O)cc1)C2 (configuration not stated) here?
A: The Ki was 22 µM.

Q: What about the Ki [2] of the same compound?
A: The Ki was 0.19 µM.

Q: What about the IC50 [3] of the same compound?
A: Its IC50 is 12 µM.

Q: What about the IC50 [4] of the same compound?
A: Its IC50 is 2100 µM.

Q: How did the Ki [5] turn out when Nc1nc(O)c2c(n1)CCC(CNc1ccc(C(=O)NC(CCC(=O)O)C(=O)O)cc1)C2 (configuration not stated) was run?
A: Its Ki is 0.065 µM.

Q: Which Ki [1] does the source give for Nc1nc2ncc(CNc3ccc(C(=O)NC(CCP(=O)(O)O)C(=O)O)cc3)cc2c(=O)[nH]1 (configuration not stated) here?
A: Its Ki is 9 µM.

Q: What about the IC50 [3] of the same compound?
A: The IC50 was 4.7 µM.

Q: And the IC50 [4]?
A: Its IC50 is 300 µM.

Q: Which results are given for CCOP(=O)(O)CCC(NC(=O)c1ccc(NCc2cnc3nc(N)[nH]c(=O)c3c2)cc1)C(=O)O (configuration not stated)?
A: Ki [1]: 2000 µM; IC50 [3]: 1.3 µM; IC50 [4]: 100 µM

Q: With CCOP(=O)(O)CCC(NC(=O)c1ccc(NCC2CNc3nc(N)nc(O)c3C2)cc1)C(=O)O (configuration not stated) as the compound, how does the Ki [1] read?
A: Its Ki is 115 µM.

Q: What about the IC50 [3] of the same compound?
A: The IC50 was 950 µM.

Q: What about the IC50 [4] of the same compound?
A: Its IC50 is greater than 5000 µM.

Q: CCCN(Cc1ccc2nc(N)nc(O)c2c1)c1ccc(C(=O)NC(CCC(=O)O)C(=O)O)cc1 (configuration not stated) was tested. Which IC50 [4] did it give?
A: The IC50 was 0.068 µM.
